Results published in patent US6703011B2, “Application of film forming technology to fragrance control release systems; and resultant fragrance control release systems” (International Flavors & Fragrances Inc., priority 1998, dated 2004).
Where a name gives a salt, the structure may show the parent alone.

What was measured:
[1] = vapor pressure of fragrance components
[2] = FRAGRANCE PERMEATION TEST (diffusion cell, weight loss); format: physicochemical; conditions: for permeation rate through hydroxypropyl cellulose / permeation rate through polyvinyl alcohol: 35° C., film thickness about 150 microns; for permeation rate through polyvinyl alcohol: FIG. 5C (98% hydrolyzed polyvinyl acetate)
Excerpt: Referring to FIGS. 4A and 4B, fluid 46 is located in jar 44. Jar 44 has sidearm 45. The fluid 46 reaches fluid level 47. Directly in line with fluid level 47 is membrane 41. The diffusion membrane 41 is held in place with flanges 43 and jar lip 42, using bolts 401a and 401b which secures the flange in place. The sidearm 45 is closed using closure 49. The permeability apparatus is shown using reference numeral 40. The FRAGRANCE PERMEABILITY TEST is based on the use of the apparatus of FIGS. 4A and 4B. The weight of membrane 41 is taken, initially, before being placed within the flange 43 and the jar lip 42. Substance 46 for which the permeability is to be measured is placed into jar 44 to fluid level 47. The apparatus containing fluid 46 remains in place for a fixed period of time. At the end of that period of time, bolts 401a and 401b as well as 401c are loosened, the flange 43 removed and membrane 41 is removed and weighed, thereby gathering sufficient data to determine the permeability of the particular substance 46. The design and development of fragrance controlled release systems is built upon an understanding of the transport mechanisms of aroma chemicals and fragrances through polymers. The ability of the film forming polymers to sustain fragrance release was determined by permeation studies. A special diffusion cell has been developed to measure the steady state permeation of aroma chemicals and fragrances through polymeric films using weight loss. […] The polymeric film is mounted on the diffusion cell and is tightly secured by a glass ring fitted with three screws. […] The diffusant (fragrances, single or mixture of aroma chemicals) is kept in contact with the polymer film throughout the experiment period by filling the diffusion cell arm with the diffusant. The permeation rate of the diffusant is determined by monitoring the changes in the diffusion cell weight. The permeability coefficient, or permeability P, is useful in describing the rate of mass transport through a polymer at steady state. Permeability is related to two basic properties: diffusion and solubility. The permeability coefficient can be expressed by the diffusion coefficient (D) and the solubility coefficient (S). Their relationship is described by the following equation: This value is the actual weight loss that is being measured during our experiments. […] P=DS and the use of neat material (not dilution in a solvent), one can then solve the equation to determine the permeability coefficient using the cell dimension (surface area, A), the thickness of the film (L) and the weight loss data (Q=dM/dt): [formula] The effect of fragrance physical and chemical properties on its permeation rate through the film forming polymers was studied using the experimental setup described, supra. FIG. 5B, described in detail, supra, presents the effect of log10P on the permeation rate of the two model aroma chemicals through hydroxypropyl cellulose. The permeation studies were carried out at 35° C., and the temperature was kept constant within ±0.5 C. throughout the experiment period. […] The aroma chemicals studied, ethyl […] β-pinene, have approximately the same values of vapor pressure, but differ in their solubility in water. Ethyl […] lower value of log10P and thus is more water soluble than β-pinene. The permeation rates on two model aroma chemicals having a high and low log10P through a polyvinyl alcohol, having crystalline and better packed structure, were also studied and are illustrated in FIG. 5C, described in detail, supra. The permeation studies were carried out at 35° C., and the temperature was kept constant within +0.5° C. throughout the experiment period. […] The aroma chemicals studied, ethyl […] β-pinene, have about the same values of vapor pressure, but differ in their solubility in water. Ethyl […] lower value of log10P and thus is more water soluble than β-pinene.

[3] = evaporation rate of aroma chemical without the polymer; format: physicochemical; conditions: 35° C.
Procedure: The effect of fragrance physical and chemical properties on its permeation rate through the film forming polymers was studied using the experimental setup described, supra. FIG. 5B, described in detail, supra, presents the effect of log10P on the permeation rate of the two model aroma chemicals through hydroxypropyl cellulose. The permeation studies were carried out at 35° C., and the temperature was kept constant within ±0.5 C. throughout the experiment period. The thickness of the films studied was about 150 microns. The aroma chemicals studied, ethyl […] β-pinene, have approximately the same values of vapor pressure, but differ in their solubility in water. Ethyl […] lower value of log10P and thus is more water soluble than β-pinene. The permeation rates on two model aroma chemicals having a high and low log10P through a polyvinyl alcohol, having crystalline and better packed structure, were also studied and are illustrated in FIG. 5C, described in detail, supra. The permeation studies were carried out at 35° C., and the temperature was kept constant within +0.5° C. throughout the experiment period. The thickness of the films studied was about 150 microns. The aroma chemicals studied, ethyl […] β-pinene, have about the same values of vapor pressure, but differ in their solubility in water. Ethyl […] lower value of log10P and thus is more water soluble than β-pinene.

[4] = polymer film material: carboxymethyl cellulose
[5] = polymer film material: polyvinyl alcohol (74% hydrolyzed)
[6] = polymer film material: polyvinyl alcohol (98% hydrolyzed)

| Molecule | Vapor Pressure ([1]; at 25° C.) | further results |
| --- | --- | --- |
| CC1=CC(C)C(C=O)CC1 (stereo not drawn) | 0.3 mm/Hg |  |
| CC(=O)O[C@@H]1C[C@H]2CC[C@]1(C)C2(C)C (racemic) [isobornyl acetate] | 0.09 mm/Hg |  |
| CC(OC=O)C1CCCC(C)(C)C1 (stereo not drawn) [C.P. FORMATE®, the formic acid ester of 1,1-dimethyl-3(1-hydroxyethyl)cyclohexane, reference compound] |  | Vapor Pressure ([1]; figure legends, unit inferred): 0.1 mmHg; Permeation ([2]; polymer film material: hydroxypropyl cellulose (molecular weight = 100,000)): 2.5 × 10^−4 mg-mm thickness/cm^2 area - mi |
| CC1(C)C2CCC1(C)C(O)C2 (stereo not drawn) [Example 1-borneol, 1-borneol] | 0.02 mm/Hg |  |
| CC(=O)C1(C)CC2=C(CCCC2(C)C)CC1C (stereo not drawn) [ISO E SUPER ®] | 0.002 mm/Hg |  |
| CC(C=O)Cc1ccc(C(C)(C)C)cc1 (stereo not drawn) [LILIAL ®] | 0.003 mm/Hg |  |
| CC(=O)c1cc2c(cc1C)C(C)(C)C(C)CC2(C)C (stereo not drawn) [TONALID ®] | 0.0001 mm/Hg |  |
| CC(=O)OC1CCC(C(C)(C)C)CC1 (stereo not drawn) [VERTENEX ® HC] | 0.03 mm/Hg |  |
| C=CCOC(=O)COCCC(C)C [allyl amyl glycolate] | 0.07 mm/Hg |  |
| CC(=O)OCc1ccccc1 [benzyl acetate] | 0.1 mm/Hg |  |
| CC12CCC(CC1=O)C2(C)C (stereo not drawn) [camphor] | 0.1 mm/Hg |  |
| CC/C=C\CCOC(C)=O [cis-3-hexenyl acetate] | 2.0 mm/Hg |  |
| CC/C=C\CCOC(=O)c1ccccc1O [cis-3-hexenyl salicylate] | 0.0008 mm/Hg |  |
| CC(C)=CCCC(C)CCO (stereo not drawn) [citronellol] | 0.009 mm/Hg |  |
| CC(C=O)Cc1ccc(C(C)C)cc1 (stereo not drawn) [cyclamal] | 0.004 mm/Hg |  |
| C=CC(C)CCCC(C)(C)O (stereo not drawn) [dihydromyrcenol] | 0.09 mm/Hg |  |
| C/C=C(\C)C(=O)OCC [ethyl tiglate] |  | Vapor Pressure ([1]; figure legends, unit inferred): 1.8 mmHg; permeation rate through hydroxypropyl cellulose [2]: exactly the same as its evaporation rate without the polymer; permeation rate through polyvinyl alcohol [2]: about 1.8×10^−4; permeation rate through hydroxypropyl cellulose ([2]; listed as Ethyl tiglate): equal to its evaporation rate; Permeation [2, 4]: 2.8 × 10^−3 mg-mm thickness/cm^2 area - mi; Permeation [2, 5]: 5 × 10^−3 mg-mm thickness/cm^2 area - mi; Permeation [2, 6]: 2 × 10^−3 mg-mm thickness/cm^2 area - mi; overall permeation rate ([2]; through positively charged polymers POLYMER LK and POLYMER LR-400 (FIG. 5I)): 5.8×10^−4 |
| CCCCCCC(C=O)=Cc1ccccc1 [hexyl cinnamic aldehyde] | 0.0003 mm/Hg |  |
| C=CC(C)(O)CCC=C(C)C (stereo not drawn) [linalool] | 0.05 mm/Hg |  |
| C=CC(C)(CCC=C(C)C)OC(C)=O (stereo not drawn) [linalyl acetate] | 0.07 mm/Hg |  |
| C=CCc1ccc(OC)cc1 [methyl chavicol] | 0.09 mm/Hg |  |
| CCCCCCCCCC(C)C=O (stereo not drawn) [methyl nonyl acetaldehyde] | 0.009 mm/Hg |  |
| CCCCCCCC=O [n-octanal] |  | Permeation ([2]; not told): 2.8 × 10^−3 mg-mm thickness/cm^2 area - mi |
| CC(=O)OC(C)c1ccccc1 (stereo not drawn) [styralyl acetate] | 0.1 mm/Hg |  |
| CC1=CCC(C(C)(C)O)CC1 (stereo not drawn) [α-terpineol] | 0.02 mm/Hg |  |
| CC(=O)/C=C/C1=C(C)CCCC1(C)C [β-ionone] | 0.006 mm/Hg |  |
| OCCc1ccccc1 [β-phenyl ethyl alcohol] | 0.02 mm/Hg |  |
| C=C1CCC2CC1C2(C)C (stereo not drawn) [β-pinene] |  | evaporation rate without the polymer [3]: about 0.15; Vapor Pressure ([1]; figure legends, unit inferred): 2.2 mmHg; permeation rate through hydroxypropyl cellulose [2]: 2.7×10^−4; permeation rate through polyvinyl alcohol [2]: about 1.8×10^−4; Permeation [2, 4]: 2.8 × 10^−3 mg-mm thickness/cm^2 area - mi; Permeation [2, 5]: 2.5 × 10^−3 mg-mm thickness/cm^2 area - mi; Permeation [2, 6]: 2 × 10^−3 mg-mm thickness/cm^2 area - mi; permeation rate ([2]; through POLYMER LK (FIG. 5K, graph 596)): 3.9×10^−5; permeation rate ([2]; through POLYMER LR-400 (FIG. 5K, graph 595)): 7.5×10^−5 |
| peach aldehyde coeur | 0.002 mm/Hg |  |
